{"source": "ChEMBL document CHEMBL1129010", "about": "“The preparation and evaluation of (+/-)-trans-1-Diazo-8-methoxy-4a-methyl-1,2,3,4,4a,9,10,10a-octahydro-phenanthren-2-one as an inhibitor of human type-1 steroid 5-reductase” (Bioorg Med Chem Lett, 1996)", "key": {"[1]": {"target": "T1, 3-oxo-5-alpha-steroid 4-dehydrogenase 2 (Homo sapiens, UniProt P31213)", "T1 sequence (P31213 whole entry)": "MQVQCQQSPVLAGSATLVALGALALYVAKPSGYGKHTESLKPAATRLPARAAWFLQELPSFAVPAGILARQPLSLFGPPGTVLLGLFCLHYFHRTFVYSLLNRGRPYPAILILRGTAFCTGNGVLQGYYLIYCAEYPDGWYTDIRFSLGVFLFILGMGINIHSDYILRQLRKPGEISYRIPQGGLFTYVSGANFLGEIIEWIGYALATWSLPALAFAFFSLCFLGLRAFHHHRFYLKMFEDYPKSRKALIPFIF", "experiment": "Apparent inhibitory activity against human Steroid 5-alpha-reductase type 2 expressed in CHO cells", "assay_type": "cell-based", "conditions": "read-out: Ki app; call rule not given here"}, "[2]": {"target": "T2, 3-oxo-5-alpha-steroid 4-dehydrogenase 1 (Homo sapiens, UniProt P18405)", "T2 sequence (P18405 whole entry)": "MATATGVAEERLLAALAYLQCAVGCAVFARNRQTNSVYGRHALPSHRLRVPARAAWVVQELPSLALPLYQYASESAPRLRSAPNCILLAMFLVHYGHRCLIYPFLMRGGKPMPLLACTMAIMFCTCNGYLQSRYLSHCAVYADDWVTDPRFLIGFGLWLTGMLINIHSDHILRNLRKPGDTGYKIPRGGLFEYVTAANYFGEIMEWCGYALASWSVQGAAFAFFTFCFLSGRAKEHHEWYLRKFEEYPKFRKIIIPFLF", "experiment": "Apparent inhibitory activity against human Steroid 5-alpha-reductase type I expressed in CHO cells", "assay_type": "cell-based", "conditions": "read-out: Ki app"}, "[3]": {"target": "T2, 3-oxo-5-alpha-steroid 4-dehydrogenase 1", "experiment": "Apparent inhibitory activity against human Steroid 5-alpha-reductase type I expressed in CHO cells; Active", "assay_type": "cell-based"}, "[4]": {"target": "T3, 3-oxo-5-alpha-steroid 4-dehydrogenase 1 (Rattus norvegicus, UniProt P24008)", "T3 sequence (P24008 whole entry)": "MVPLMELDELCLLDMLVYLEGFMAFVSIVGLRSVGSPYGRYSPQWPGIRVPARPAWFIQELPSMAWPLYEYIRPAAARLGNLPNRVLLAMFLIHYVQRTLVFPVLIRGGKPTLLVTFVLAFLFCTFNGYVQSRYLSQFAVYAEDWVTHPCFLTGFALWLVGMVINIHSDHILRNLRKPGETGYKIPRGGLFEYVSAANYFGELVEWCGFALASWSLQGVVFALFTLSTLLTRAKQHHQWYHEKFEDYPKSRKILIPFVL", "experiment": "Apparent inhibitory activity against rat prostatic Steroid 5-alpha-reductase type I"}, "[5]": {"target": "T2, 3-oxo-5-alpha-steroid 4-dehydrogenase 1", "experiment": "Selective apparent inhibitory activity against human Steroid 5-alpha-reductase type I expressed in CHO cells; Active", "assay_type": "cell-based"}}}
{"compound": "COc1cccc2c1CC[C@H]1[C-]([N+]#N)C(=O)CC[C@]21C", "values": [{"measurement": "Ki", "setting": "[1]", "result": 2000, "unit": "nM"}, {"measurement": "Ki", "setting": "[2]", "result": 120, "unit": "nM"}]}
{"compound": "CN1C(=O)CC[C@]2(C)c3ccc(Cl)cc3CC[C@@H]12", "values": [{"measurement": "Ki", "setting": "[3]", "result": "Active"}]}
{"compound": "CC(CO)[C@H]1CC[C@H]2[C@@H]3CC[C@H]4C(=[N+]=[N-])C(=O)CC[C@]4(C)[C@H]3CC[C@]12C", "note": "(stereo partly specified)", "values": [{"measurement": "Ki", "setting": "[4]", "result": 35, "unit": "nM"}]}
{"compound": "C[C@]12CCC(C(=O)O)=CC1=CCc1cc(Cl)ccc12", "note": "(racemic)", "values": [{"measurement": "Ki", "setting": "[5]", "result": "Active"}]}
{"compound": "CN1C(=O)CC[C@@H]2c3ccc(Cl)cc3CC[C@H]21", "note": "[BEXLOSTERIDE]", "values": [{"measurement": "Ki", "setting": "[3]", "result": "Active"}]}
